Reference: patent US20100048564A1, “FUSED BICYCLIC HETEROARYL DERIVATIVE” (DAIICHI SANKYO COMPANY, LIMITED, priority 2007, published 2010)
Where two headings read alike, the source gives them in different places.

Assays:
KK mice = assay: Hypoglycemic effect in diabetic KK mice (Test Example 1); type: in vivo; conditions: Mus musculus, po, 72 h; male KK mice, diet admixture containing 0.03% of the compound, 3 days, plasma glucose vs control group; read-out: Hypoglycemic rate (%)
Source text: Six-week-old male KK mice were purchased from CLEA Japan, Inc. and then were fed until 15 to 20 weeks old to develop diabetes. The mice were individually fed during the adaptation period and the test period, and water and feed (FR2, Funabashi Farm) were freely ingested.
At the start of the experiment, after body weight measurement, blood was collected from the tail vein of the mice into a heparin-coated glass tube and centrifuged, and then plasma was separated. The glucose level in the plasma was measured by Glucoloader GXT (A&T Corp.), and individuals having a plasma glucose level of about 350 mg/dl or more were selected. The mice were grouped, each group having 3 to 4 mice, to make the average body weight and the average plasma glucose level similar. Each compound was administered to a compound group with a diet admixture containing 0.03% of the compound. A separate group in which the mice were fed only with diet was a control group.
The experiment period (drug administration period) was three days. The grouping day was the 0th day. On the 3rd day, the body weight was measured and blood was collected from the tail vein to measure the plasma glucose level.
The hypoglycemic rate was determined by the following formula.
Hypoglycemic rate=[(Control group blood glucose level−Compound-administered group blood glucose level)/Control group blood glucose level]×100

human PPARγ2 = molecular target: T1, human PPARγ2 (Homo sapiens, UniProt P37231); assay: Evaluation of PPARγ modulator activity, PPRE luciferase reporter in MG63 cells (Test Example 2); type: cell-based; conditions: for Emax: MG-63; for IC50: in the presence of Compound A, concentration representing (100−Imax)/2; for Imax (%): maximum inhibition of luciferase activity in the presence of Compound A
T1 construct: expressed in transfected cells; host or cells: human osteosarcoma cell line MG63, transiently transfected with pSG5-hPPARγ and pGV-P2-PPRE
T1 sequence (P37231 1-505): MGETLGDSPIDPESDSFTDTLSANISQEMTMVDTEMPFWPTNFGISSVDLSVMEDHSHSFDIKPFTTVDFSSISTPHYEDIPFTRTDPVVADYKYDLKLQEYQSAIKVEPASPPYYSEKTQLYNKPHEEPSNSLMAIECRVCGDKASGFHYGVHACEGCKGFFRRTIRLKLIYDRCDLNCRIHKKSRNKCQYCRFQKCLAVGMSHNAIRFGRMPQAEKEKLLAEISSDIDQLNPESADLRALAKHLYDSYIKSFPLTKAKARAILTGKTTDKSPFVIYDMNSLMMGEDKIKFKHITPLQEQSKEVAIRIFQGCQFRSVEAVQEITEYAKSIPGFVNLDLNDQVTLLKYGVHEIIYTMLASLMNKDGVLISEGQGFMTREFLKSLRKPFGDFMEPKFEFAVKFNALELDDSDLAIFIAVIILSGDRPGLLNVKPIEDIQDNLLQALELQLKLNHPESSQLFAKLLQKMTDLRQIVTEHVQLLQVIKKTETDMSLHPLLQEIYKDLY
Description: In FIG. 3, the luciferase activity of the positive control group is defined as 100% and the luciferase activity of the control group is defined as 0%.
Polymerase chain reaction (hereinafter “PCR”) primers were designed based on the human PPARγ2 gene sequence (GenBANK accession No. D83233). The recognition sequences for restriction enzyme BglII were added to upstream and downstream regions of a gene encoding human PPARγ2 protein, in which the recognition sequences were necessary for inserting the gene into the restriction site BamHI of the expression plasmid pSG5 (Stratagene) for the gene.
The recognition sequence for restriction enzyme NheI was added to S2 and the recognition sequence for restriction enzyme XhoI was added to AS2 for insertion into the reporter plasmid pGV-P2 (Toyo Ink Mfg. Co., Ltd.).
PCR was carried out using thermostable DNA polymerase Ex-Taq (Takara Shuzo Co., Ltd.) with a human adipose tissue-derived cDNA library (Clontech) as a template and the DNA oligomers S1 and AS1 obtained in Procedure 1 as PCR primers. […] A cycle was repeated 30 times consisting of incubation at 94° C. for one minute, incubation at 55° C. for 30 seconds and incubation at 72° C. for 30 seconds. The resulting DNA fragment of about 1500 bp was partially cleaved by restriction enzyme BglII and inserted into the restriction site BamHI of pSG5 to obtain a human PPARγ expression plasmid pSG5-hPPARγ.
A vector pGV-P2 digest was prepared by digestion with restriction enzymes NheI and XhoI and purification by 1.0% agarose gel electrophoresis. The DNA oligomers S2 and AS2 obtained in Procedure 2 were mixed, incubated in a hot water bath at 94° C. for one minute, and then incubated at 25° C. for one hour to form a double-stranded DNA with S2 and AS2 annealed. Thereafter, the terminals of the double-stranded DNA were phosphorylated using DNA polynucleotide kinase (Toyobo Co., Ltd.) and then ligated to the previously prepared pGV-P2 digest using the restriction sites NheI and XhoI to obtain a reporter plasmid pGV-P2-PPRE having a PPAR response sequence.
The gene was transiently transferred to the human osteosarcoma cell line MG63, and then cells were harvested.
Thereafter, DMSO diluted 20-fold with 10% α-MEM was added to the control group and the positive control group at 5 μl/well. 10% α-MEM was added to the test compound-added group at 95 μl/well. Thereafter, the test compound diluted to various concentrations with DMSO was diluted 20-fold with 10% α-MEM; this was added to the test compound-added group at 5 μl/well.
Thereafter, DMSO was diluted 20-fold with 10% α-MEM; this was added to the control group and the positive control group at 5 μl/well. […] Thereafter, the test compound diluted to various concentrations with DMSO was diluted 20-fold with 10% α-MEM; this was added to the test compound-added group at 5 μl/well.
The cells prepared in Procedures 6 and 7 were cultured for 24 hours and then the medium was removed. […] The mixture was left to stand at room temperature for about 10 minutes and then stirred with a micromixer (TAITEC E-36). The luciferase activity was measured using Analyst (Molecular Devices) and a dose-dependent curve was drawn.
The IC50, Imax, EC50 and Emax of the test compound to be determined are defined as follows.
Here, the concentration of the test compound representing Emax/2 is calculated as EC50. The concentration of the test compound representing (100−Imax)/2 is calculated as IC50. The IC50 and EC50 calculated in this manner were used for evaluating the PPARγ modulator activity.

[1] = maximum luciferase activity by test compound alone, positive control (Compound A) 100%, control 0%, read-out: Emax (%)
[2] = MG63 cells, luciferase activity
[3] = test compound alone, concentration representing Emax/2, MG63 cells, luciferase activity, read-out: EC50

Row | Compound | Emax (human PPARγ2; [1]) [%] | IC50 (human PPARγ2; [2]) [nM] | Imax (%) (human PPARγ2) | EC50 (human PPARγ2; [3]) [nM] | inhibition in vivo at 0.03 % in diet (KK mice) [%] | EC50 (human PPARγ2) [nM] | Emax (human PPARγ2) [%]
1 | Cc1cc(Oc2ccc3nc(COc4cccc(C(=O)O)c4)n(C)c3c2)cc(C)c1N.Cl.Cl [Example 2, 3-{[6-(4-Amino-3,5-dimethylphenoxy)-1-methyl-1H-benzimidazol-2-yl]methoxy}benzoic acid dihydrochloride] | 70 | 56.1 | −44 | 3.28 | 37 | – | –
2 | Cl.Cn1c(COc2cccc(C(=O)O)c2)nc2ccc(Oc3cccc(F)c3)cc21 [Example 8, 3-{[6-(3-Fluorophenoxy)-1-methyl-1H-benzimidazol-2-yl]methoxy}benzoic acid hydrochloride] | 39 | 73.3 | −34 | 7.72 | 29 | – | –
3 | Cl.Cn1c(COc2cccc(C(=O)O)c2)nc2ccc(Oc3ccccc3)cc21 [Example 14, 3-[(1-Methyl-6-phenoxy-1H-benzimidazol-2-yl)methoxy]benzoic acid hydrochloride] | – | – | −35 | – | 33 | 51.7 | 54

Second part, led by results:

Row | Emax (human PPARγ2; [1]) [%] | IC50 (human PPARγ2; [2]) [nM] | Imax (%) (human PPARγ2) | EC50 (human PPARγ2; [3]) [nM] | Compound | inhibition in vivo at 0.03 % in diet (KK mice) [%] | EC50 (human PPARγ2) [nM] | Emax (human PPARγ2) [%]
4 | 42 | 33.2 | −50 | 2.06 | Cl.Cn1c(COc2cccc(C(=O)O)c2)nc2ccc(Oc3ccc(Cl)c(F)c3)cc21 [Example 10, 3-{[6-(4-Chloro-3-fluorophenoxy)-1-methyl-1H-benzimidazol-2-yl]methoxy}benzoic acid hydrochloride] | 35 | – | –
5 | 42 | 40.4 | −43 | 2.34 | Cl.Cn1c(COc2cccc(C(=O)O)c2)nc2ccc(Oc3ccc(F)c(Cl)c3)cc21 [Example 12, 3-{[6-(3-Chloro-4-fluorophenoxy)-1-methyl-1H-benzimidazol-2-yl]methoxy}benzoic acid hydrochloride] | 30 | – | –
6 | 46 | 402 | −44 | 26.4 | Cl.Cl.Cn1c(COc2cccc(C(=O)O)c2)nc2ccc(Oc3ccccc3)nc21 [Example 16, 3-[(3-Methyl-5-phenoxy-3H-imidazo[4,5-b]pyridin-2-yl)methoxy]benzoic acid dihydrochloride] | 60 | – | –
